Active and inactive are the calls of the source.
Assays:
Nonstructural protein 1 = Nonstructural protein 1 (Influenza A virus, UniProt Q194T2); assay type: functional, Influenza A virus (A/California/07/2009(H1N1))
INS1 = test: INS-1E survival protection against cytokine death – cell-based, luminescence, retest, dose response (AID 449756); assay type: functional; conditions: Rattus norvegicus;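 note: cell death triggered by IL-1 beta plus TNF-alpha plus IFN-gamma mixture; protective hits raise ATP signal compared with cytokine alone wells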
[1] = viability loss in THP-1 monocytes – THP-1 cells, cytotoxicity control for Vif-APOBEC3G degradation inhibitor project, dose response (AID 1117359); assay type: functional; conditions: THP-1
Bcl-2-like protein 10 = molecular target: T1, Bcl-2-like protein 10 (Homo sapiens, UniProt Q9HD36); test: Bcl-B/TR3 peptide binding disruption – biochemical, fluorescence polarization, FITC-TR3 peptide, selectivity assay for Bfl-1 inhibitor project, primary screen (AID 748);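 note: fluorescence polarization from a fluorescein-labelled TR3 peptide binding purified Bcl-B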
T1 sequence (Q9HD36 whole entry): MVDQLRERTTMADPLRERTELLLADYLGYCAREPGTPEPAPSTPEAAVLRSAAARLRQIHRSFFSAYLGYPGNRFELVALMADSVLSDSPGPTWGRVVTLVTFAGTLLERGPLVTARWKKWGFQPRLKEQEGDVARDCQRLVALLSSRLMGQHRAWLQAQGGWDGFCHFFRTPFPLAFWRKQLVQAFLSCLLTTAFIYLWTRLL

[2] = NIH-3T3 fibroblast cytotoxicity, dose response, cytotoxicity control, cell-based, fluorescence, Alamar Blue, secondary assay (AID 2327); assay type: functional;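 note: NIH-3T3 mouse fibroblasts cultured with fluconazole at 8 µg/mL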
Estrogen receptor = molecular target: T2, Estrogen receptor (Homo sapiens, UniProt P03372);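 note: potency for inhibiting coactivator peptide recruitment to the receptor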
T2 sequence (P03372 whole entry): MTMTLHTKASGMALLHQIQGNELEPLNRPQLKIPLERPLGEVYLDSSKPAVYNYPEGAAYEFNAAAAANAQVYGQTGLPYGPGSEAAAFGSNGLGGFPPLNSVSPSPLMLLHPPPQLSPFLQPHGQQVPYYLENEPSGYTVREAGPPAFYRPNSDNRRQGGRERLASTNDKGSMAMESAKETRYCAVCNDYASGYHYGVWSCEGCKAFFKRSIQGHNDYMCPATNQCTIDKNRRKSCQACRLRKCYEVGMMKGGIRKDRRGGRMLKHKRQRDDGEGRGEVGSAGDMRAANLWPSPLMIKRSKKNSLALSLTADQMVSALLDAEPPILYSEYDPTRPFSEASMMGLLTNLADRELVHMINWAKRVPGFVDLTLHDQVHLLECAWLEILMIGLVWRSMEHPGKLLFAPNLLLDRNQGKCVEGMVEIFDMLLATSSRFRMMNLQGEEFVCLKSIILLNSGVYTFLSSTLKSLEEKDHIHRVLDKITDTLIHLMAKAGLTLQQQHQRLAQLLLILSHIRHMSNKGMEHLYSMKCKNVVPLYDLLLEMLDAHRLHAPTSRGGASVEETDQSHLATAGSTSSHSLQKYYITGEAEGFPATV

[3] = fluconazole-exposed Candida albicans growth modulators – fluorescence, retest, confirmation (AID 2467); assay type: functional, cell-based
Cytochrome P450 2C9 = Cytochrome P450 2C9 (Homo sapiens, UniProt P11712); conditions: Potency
[4] = IC50 of Artemis nuclease activity blockers – biochemical, fluorescence intensity, dose response (AID 720701); assay type: functional;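 note: Artemis endonuclease enzyme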
[5] = viability of HCT116 lacking mutant beta-catenin – cell-based, human colon tumor, dose response (AID 1045); assay type: functional;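 note: HCT116 colon tumor cells with beta catenin knocked out; cells exposed to compound for 60 hours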
H4 = test: Luminescence Cell-Based Dose Response HTS to Identify Activators of 5'UTR Stem-Loop Driven Prion Protein mRNA Translation in H4 Neuroglioblastoma Cells. [Related pubchem assays: 1829 (Project Summary), 1814 (Primary HTS)]; assay type: functional; conditions: Homo sapiens
[6] = Luminescence Cell-Based Dose Retest to Confirm Inhibitors of Cancer Stem Cells. [Related pubchem assays (depositor defined):AID2717, AID2721]; assay type: functional; conditions: Homo sapiens
[7] = viability of PTEN-deleted HCT116 cells – cell-based, HCT116 PTEN knockout, dose response (AID 1047); assay type: functional;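 note: HCT116 colon tumor cells with PTEN knocked out; cells exposed to compound for 60 hours before readout; potency for loss of cell viability measured by luminescence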
[8] = molecular target: DNA damage-inducible transcript 3 protein (Mus musculus, UniProt P35639); assay type: functional, Cricetulus griseus
[9] = Luminescence Cell-Based Dose Confirmation HTS to Identify Activators of 5'UTR Stem-Loop Driven Alpha-Synuclein mRNA Translation in H4 Neuroglioblastoma Cells. [Related pubchem assays: 1829 (Project Summary), 1814 (Primary HTS)]; assay type: functional
[10] = Luminescence Cell-Based Dose Response HTS to Identify Activators of Luciferase Translation or Activity in H4 […] Cells. [Related pubchem assays: 1829 (Project Summary), 1814 (Primary HTS)]; assay type: functional
[11] = blockers of CRF-binding protein–CRF-R2 complex – cell-based, uHTS hits, 384-well, dose response (AID 651639); assay type: functional, Homo sapiens; conditions: read-out: IC50_Mean
[12] = molecular target: T3, Corticotropin-releasing factor receptor 2/Corticotropin-releasing factor-binding protein (Homo sapiens, UniProt P24387+Q13324); test: activators of CRF receptor 2 with binding protein – uHTS hits, confirmation (AID 602473); assay type: functional; conditions: read-out: EC50_Mean
T3 sequence (Q13324 whole entry): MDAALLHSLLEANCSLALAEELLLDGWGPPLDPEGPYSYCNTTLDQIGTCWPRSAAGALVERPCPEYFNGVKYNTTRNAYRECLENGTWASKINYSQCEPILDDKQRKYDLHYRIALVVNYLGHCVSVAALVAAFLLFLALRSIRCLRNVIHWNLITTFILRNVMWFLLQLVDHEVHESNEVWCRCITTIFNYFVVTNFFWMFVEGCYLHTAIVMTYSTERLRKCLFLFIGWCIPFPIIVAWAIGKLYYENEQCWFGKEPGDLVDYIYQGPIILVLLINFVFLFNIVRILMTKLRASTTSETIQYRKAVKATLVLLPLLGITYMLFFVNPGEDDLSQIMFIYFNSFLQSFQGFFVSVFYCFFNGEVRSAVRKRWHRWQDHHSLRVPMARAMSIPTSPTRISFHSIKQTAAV
T3 sequence (P24387 whole entry): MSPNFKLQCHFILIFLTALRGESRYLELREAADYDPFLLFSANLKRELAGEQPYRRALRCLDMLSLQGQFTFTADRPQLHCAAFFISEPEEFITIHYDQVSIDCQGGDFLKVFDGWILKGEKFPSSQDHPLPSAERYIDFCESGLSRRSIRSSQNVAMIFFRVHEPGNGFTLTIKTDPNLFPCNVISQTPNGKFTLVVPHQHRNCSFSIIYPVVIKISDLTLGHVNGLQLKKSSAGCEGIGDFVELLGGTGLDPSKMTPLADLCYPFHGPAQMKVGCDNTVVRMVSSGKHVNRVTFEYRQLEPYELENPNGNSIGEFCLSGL

Aminopeptidase N = Aminopeptidase N (Plasmodium falciparum FcB1/Columbia, UniProt O96935); test: malaria alanyl aminopeptidase activity blockers – biochemical, fluorogenic H-Leu-NHMec substrate, 1536-well (AID 1445); design: species or system Plasmodium falciparum 3D7, 3D7
[13] = molecular target: T3, Corticotropin-releasing factor receptor 2/Corticotropin-releasing factor-binding protein; test: Dose Response confirmation of uHTS hits for small molecule antagonists of the CRF-binding protein and CRF-R2 receptor complex.; assay type: functional; conditions: read-out: IC50_Mean
[14] = molecular target: G-protein coupled receptor 35 (Homo sapiens, UniProt Q9HC97); test: inhibition of zaprinast-stimulated GPR35 beta-arrestin translocation – imaging, U2OS, beta-arrestin-GFP, zaprinast agonist, primary screen (AID 2058); assay type: functional;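 note: antagonist potency meaning inhibition of agonist-induced arrestin redistribution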
[15] = molecular target: Scavenger receptor class B member 1 (Mus musculus, UniProt Q61009); test: mouse SR-BI DiI-HDL uptake blockers – ldlA[mSR-BI] cells, fluorescence, cherry pick, dose response (AID 493194); assay type: functional, cell-based;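 note: cellular uptake of fluorescent DiI-labeled HDL measured as cell fluorescence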
[16] = molecular target: T4, Heat shock factor protein 1 (Mus musculus, UniProt P38532); test: decrease of HSF1-responsive luciferase luminescence – cell-based, NIH3T3, dose retest, confirmation (AID 2382); assay type: functional;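 note: NIH3T3 fibroblasts with HSF1-driven luciferase reporter stressed by proteasome inhibitor MG132; luminescence from HSF1-driven luciferase expression after 8 hours of MG132 stress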
T4 sequence (P38532 whole entry): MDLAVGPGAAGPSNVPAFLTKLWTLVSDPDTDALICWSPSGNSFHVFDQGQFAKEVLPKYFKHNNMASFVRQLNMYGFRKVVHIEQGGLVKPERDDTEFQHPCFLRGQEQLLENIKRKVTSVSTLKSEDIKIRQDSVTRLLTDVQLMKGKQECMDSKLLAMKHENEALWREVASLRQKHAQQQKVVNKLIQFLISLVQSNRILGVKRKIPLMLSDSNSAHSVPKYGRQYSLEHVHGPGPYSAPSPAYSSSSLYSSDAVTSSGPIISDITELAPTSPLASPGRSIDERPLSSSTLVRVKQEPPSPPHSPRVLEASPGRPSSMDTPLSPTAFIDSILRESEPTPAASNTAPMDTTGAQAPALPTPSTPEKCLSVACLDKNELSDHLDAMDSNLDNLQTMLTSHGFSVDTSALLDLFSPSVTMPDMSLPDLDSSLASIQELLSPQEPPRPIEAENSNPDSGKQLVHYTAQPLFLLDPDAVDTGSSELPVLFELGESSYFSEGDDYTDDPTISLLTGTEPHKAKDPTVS

[17] = molecular target: G-protein coupled receptor 55 (Homo sapiens, UniProt Q9Y2T6); test: selective activators of receptor GPR55 – imaging, U2OS cells, beta-arrestin-GFP redistribution, primary screen (AID 1961); assay type: functional
[18] = MIN6 cell viability loss – mouse insulinoma, cytotoxicity control, dose response (AID 2122); assay type: functional;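 note: confirmatory high-throughput counterscreen run to flag cytotoxic compounds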
Paired box protein Pax-8 = Paired box protein Pax-8 (Homo sapiens, UniProt Q06710); test: PAX8 transcriptional activity inhibition in RMG-I – RMG-I cells, luciferase, cherry-pick, dose response (AID 687027); assay type: functional, cell-based;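 note: luciferase reporter driven by Pax8 target thyroperoxidase promoter measured by SteadyGlo luminescence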
[19] = reduction of Shn3 3'UTR-driven luciferase in osteoblasts – cell-based, Clone20 osteoblasts, firefly luciferase, cherry-picked, dose response (AID 624132); assay type: functional;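 note: firefly luciferase luminescence from reporter carrying the Shn3 3'UTR in osteoblasts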
[20] = loss of viability in HepG2 cells – cell-based, CellTiter-Glo, cherry-picked, cytotoxicity control for Shn3 inhibitor project, dose response (AID 624134); assay type: functional
[21] = decrease of insulin promoter-GFP reporter – imaging, high-content screening, mouse beta cells (AID 1628); assay type: functional; conditions: MIN6
Procathepsin L = Procathepsin L (Homo sapiens, UniProt P07711)
Aspartyl aminopeptidase = Aspartyl aminopeptidase (Plasmodium falciparum 3D7, UniProt Q8I2J3)
Hexokinase = Hexokinase (Trypanosoma brucei, UniProt Q38C41); test: Confirmation assay for inhibitors of Trypanosoma brucei hexokinase 1-Analogue-first series. [Related pubchem assays (depositor defined):AID1430, AID1632, AID2516, AID2560, AID2579, AID2600, AID449725, AID492951]; assay type: functional
[22] = molecular target: C-C chemokine receptor type 6 (Homo sapiens, UniProt P51684); test: antagonism of CCR6 beta-arrestin recruitment – cell-based, luminescent beta-arrestin readout, dose response (AID 504728); assay type: functional
Beta-galactosidase = Beta-galactosidase (Escherichia coli, UniProt Q8VNN2); test: detection-enzyme interference by beta-gal modulators – biochemical, E. coli enzyme, set 3, artefact control for CCR6 antagonist project, dose response (AID 504712); assay type: functional
Cytochrome P450 2D6 = Cytochrome P450 2D6 (Homo sapiens, UniProt P10635); test: qHTS Assay for Inhibitors and Substrates of Cytochrome P450 2D6. [Related pubchem assays: 410 ]; assay type: ADME; conditions: read-out: Potency

Sequence of Scavenger receptor class B member 1 (Q61009 whole entry): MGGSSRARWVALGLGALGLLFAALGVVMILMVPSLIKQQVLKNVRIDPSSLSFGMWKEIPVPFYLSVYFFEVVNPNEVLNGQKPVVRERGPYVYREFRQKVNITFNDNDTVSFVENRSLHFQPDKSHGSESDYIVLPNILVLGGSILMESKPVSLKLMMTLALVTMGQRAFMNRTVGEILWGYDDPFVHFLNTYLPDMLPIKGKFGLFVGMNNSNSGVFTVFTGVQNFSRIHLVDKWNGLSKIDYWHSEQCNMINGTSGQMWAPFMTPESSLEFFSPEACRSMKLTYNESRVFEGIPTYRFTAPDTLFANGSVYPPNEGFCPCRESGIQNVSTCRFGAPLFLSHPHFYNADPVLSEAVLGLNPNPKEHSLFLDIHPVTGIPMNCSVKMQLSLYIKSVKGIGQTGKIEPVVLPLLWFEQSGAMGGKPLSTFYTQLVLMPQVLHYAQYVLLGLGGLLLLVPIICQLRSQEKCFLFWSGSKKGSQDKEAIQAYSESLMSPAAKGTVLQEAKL
Sequence of Aminopeptidase N (O96935 whole entry): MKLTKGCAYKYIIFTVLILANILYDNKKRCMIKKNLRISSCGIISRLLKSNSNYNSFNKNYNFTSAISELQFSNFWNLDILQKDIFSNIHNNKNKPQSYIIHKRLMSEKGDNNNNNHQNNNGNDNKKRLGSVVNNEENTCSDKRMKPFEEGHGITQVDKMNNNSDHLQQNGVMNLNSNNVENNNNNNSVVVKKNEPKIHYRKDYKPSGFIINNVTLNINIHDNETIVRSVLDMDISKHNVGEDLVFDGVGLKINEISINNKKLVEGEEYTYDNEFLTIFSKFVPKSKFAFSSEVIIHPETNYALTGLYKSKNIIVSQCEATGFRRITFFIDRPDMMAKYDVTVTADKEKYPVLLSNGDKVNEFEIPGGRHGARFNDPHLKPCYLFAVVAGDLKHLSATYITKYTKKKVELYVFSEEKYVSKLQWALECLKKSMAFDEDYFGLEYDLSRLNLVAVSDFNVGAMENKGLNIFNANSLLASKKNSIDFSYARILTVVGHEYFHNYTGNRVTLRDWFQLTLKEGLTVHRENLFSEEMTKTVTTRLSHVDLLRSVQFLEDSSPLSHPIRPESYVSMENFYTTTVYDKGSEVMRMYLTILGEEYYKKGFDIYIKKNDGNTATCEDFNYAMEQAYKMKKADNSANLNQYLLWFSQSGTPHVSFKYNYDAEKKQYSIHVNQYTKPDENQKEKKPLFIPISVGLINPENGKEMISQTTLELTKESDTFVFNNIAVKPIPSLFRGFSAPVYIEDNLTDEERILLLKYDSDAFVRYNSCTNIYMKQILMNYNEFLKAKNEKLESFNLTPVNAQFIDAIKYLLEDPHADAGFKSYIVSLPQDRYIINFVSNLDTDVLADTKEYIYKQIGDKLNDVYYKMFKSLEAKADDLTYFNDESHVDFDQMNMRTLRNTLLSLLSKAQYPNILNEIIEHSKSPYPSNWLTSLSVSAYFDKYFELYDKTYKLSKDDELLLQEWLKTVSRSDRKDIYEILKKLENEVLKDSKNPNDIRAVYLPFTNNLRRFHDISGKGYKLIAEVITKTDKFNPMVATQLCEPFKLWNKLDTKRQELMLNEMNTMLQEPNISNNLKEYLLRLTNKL
Sequence of Cytochrome P450 2C9 (P11712 whole entry): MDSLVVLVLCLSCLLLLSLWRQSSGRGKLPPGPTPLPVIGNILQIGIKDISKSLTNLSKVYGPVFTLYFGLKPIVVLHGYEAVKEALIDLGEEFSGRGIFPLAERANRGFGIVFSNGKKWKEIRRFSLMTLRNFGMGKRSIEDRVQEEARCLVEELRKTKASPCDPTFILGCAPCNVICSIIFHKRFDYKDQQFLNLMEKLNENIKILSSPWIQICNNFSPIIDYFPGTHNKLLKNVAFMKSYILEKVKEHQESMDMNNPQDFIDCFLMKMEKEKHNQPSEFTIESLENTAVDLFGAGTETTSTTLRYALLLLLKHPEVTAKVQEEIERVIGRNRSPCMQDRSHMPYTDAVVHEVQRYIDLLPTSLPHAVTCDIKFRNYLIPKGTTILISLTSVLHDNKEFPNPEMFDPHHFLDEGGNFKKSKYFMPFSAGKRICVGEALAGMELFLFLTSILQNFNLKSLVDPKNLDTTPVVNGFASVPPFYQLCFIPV
Sequence of Aspartyl aminopeptidase (Q8I2J3 whole entry): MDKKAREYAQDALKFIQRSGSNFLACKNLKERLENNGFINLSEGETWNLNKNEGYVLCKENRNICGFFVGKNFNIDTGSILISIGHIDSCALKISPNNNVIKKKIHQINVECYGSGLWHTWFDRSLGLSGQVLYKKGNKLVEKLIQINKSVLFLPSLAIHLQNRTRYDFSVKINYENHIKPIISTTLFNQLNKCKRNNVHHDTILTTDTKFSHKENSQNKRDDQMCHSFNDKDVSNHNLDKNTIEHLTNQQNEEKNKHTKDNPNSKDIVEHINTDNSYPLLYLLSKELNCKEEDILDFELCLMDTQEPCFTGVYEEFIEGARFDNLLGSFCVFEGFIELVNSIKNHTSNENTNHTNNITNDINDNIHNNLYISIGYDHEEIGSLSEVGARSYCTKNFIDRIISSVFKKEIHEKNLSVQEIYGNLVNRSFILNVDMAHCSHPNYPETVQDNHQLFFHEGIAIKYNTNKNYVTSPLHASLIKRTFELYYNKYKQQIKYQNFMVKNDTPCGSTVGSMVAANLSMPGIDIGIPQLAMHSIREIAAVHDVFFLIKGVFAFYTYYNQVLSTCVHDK
Sequence of G-protein coupled receptor 55 (Q9Y2T6 whole entry): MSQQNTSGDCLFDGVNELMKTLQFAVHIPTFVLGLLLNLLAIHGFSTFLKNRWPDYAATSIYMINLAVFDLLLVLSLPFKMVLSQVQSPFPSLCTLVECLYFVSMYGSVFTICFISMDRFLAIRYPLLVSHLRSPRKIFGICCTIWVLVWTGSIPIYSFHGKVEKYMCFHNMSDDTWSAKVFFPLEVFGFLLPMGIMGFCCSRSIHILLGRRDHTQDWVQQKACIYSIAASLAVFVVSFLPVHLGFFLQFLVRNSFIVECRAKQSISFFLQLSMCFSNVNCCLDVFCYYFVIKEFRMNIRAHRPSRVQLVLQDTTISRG
Sequence of Paired box protein Pax-8 (Q06710 whole entry): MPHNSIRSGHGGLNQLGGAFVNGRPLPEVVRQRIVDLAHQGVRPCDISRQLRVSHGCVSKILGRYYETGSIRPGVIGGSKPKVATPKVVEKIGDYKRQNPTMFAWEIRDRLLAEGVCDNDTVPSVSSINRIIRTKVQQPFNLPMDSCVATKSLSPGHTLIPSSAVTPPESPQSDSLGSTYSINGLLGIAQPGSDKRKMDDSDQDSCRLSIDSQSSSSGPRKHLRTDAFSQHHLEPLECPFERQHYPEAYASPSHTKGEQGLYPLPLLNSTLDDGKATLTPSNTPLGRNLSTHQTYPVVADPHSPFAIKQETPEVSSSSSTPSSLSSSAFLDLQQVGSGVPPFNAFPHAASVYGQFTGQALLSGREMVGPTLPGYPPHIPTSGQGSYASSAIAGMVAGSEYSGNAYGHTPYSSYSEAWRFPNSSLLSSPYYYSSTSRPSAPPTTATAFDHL
Sequence of C-C chemokine receptor type 6 (P51684 whole entry): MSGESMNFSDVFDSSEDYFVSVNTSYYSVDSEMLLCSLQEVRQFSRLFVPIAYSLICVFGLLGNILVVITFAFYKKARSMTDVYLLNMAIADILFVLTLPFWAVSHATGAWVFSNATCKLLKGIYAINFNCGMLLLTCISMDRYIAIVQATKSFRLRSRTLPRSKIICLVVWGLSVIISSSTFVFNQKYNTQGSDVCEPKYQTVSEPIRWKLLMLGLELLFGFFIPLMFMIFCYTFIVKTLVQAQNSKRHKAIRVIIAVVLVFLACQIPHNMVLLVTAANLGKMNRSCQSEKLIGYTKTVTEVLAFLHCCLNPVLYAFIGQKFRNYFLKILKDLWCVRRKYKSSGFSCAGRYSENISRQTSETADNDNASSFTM
Sequence of Beta-galactosidase (Q8VNN2 whole entry): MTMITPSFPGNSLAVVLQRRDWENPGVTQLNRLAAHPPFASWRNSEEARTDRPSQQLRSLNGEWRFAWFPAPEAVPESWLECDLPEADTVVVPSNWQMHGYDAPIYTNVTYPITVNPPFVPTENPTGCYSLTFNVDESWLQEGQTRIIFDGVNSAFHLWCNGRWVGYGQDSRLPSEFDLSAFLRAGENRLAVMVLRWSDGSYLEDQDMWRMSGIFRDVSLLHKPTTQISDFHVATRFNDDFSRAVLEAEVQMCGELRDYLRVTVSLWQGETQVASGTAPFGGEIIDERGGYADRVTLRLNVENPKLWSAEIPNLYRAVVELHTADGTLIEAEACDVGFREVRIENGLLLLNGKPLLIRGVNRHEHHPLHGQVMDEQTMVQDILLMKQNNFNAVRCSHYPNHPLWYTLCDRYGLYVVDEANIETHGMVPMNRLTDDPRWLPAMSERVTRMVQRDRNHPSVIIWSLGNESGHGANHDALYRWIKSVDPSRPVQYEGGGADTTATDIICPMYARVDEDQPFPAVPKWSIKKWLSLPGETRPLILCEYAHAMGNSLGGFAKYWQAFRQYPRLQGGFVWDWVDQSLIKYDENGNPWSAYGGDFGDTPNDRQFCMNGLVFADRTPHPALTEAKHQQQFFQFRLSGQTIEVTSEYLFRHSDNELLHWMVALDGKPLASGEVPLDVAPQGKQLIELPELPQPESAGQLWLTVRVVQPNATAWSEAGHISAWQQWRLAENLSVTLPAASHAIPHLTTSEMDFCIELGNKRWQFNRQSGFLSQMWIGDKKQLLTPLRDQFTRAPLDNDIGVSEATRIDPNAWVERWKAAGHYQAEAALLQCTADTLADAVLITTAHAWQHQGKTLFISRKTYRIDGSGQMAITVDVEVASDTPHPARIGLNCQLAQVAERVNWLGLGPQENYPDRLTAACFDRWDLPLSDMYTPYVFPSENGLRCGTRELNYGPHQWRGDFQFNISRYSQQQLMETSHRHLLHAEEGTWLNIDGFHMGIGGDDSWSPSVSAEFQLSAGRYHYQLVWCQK
Sequence of DNA damage-inducible transcript 3 protein (P35639 whole entry): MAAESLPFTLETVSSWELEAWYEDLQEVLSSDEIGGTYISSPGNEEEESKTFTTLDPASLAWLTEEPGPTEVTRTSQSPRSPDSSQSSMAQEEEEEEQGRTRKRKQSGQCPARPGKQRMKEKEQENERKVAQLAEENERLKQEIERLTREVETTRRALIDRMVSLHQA

## Cc1ccc2nc(O)c(C3C(C#N)=C(N)Oc4c3ccc3cccnc43)cc2c1 (stereo unspecified)
Nonstructural protein 1
  IC50: 46.8 µM (active)
INS1
  AC50: 1.27 µM (active)
[1]
  CC50: 2.48 µM (active)
Bcl-2-like protein 10
  IC50: 66.8 µM (inactive)
[2]
  EC50: > 160 µM (inconclusive)
Estrogen receptor
  IC50: 19.5 µM (active)
[3]
  EC50: 2.17 µM (active)

## COc1ccc(-c2coc3ccc(O[C@@H]4O[C@@H](COC(C)=O)[C@@H](OC(C)=O)[C@@H](OC(C)=O)[C@H]4OC(C)=O)cc3c2=O)cc1
Cytochrome P450 2C9
  AC50: 20 µM (inconclusive)

## O=C(Cc1ccccc1)Nc1ccc(N2CCCC2)cc1
Bcl-2-like protein 10
  IC50: 31.2 µM (active)
[4]
  IC50: 6.03 µM (active)

## C=C(C(=O)c1ccccc1)C(C)C(=C)C(=O)c1ccccc1
[5]
  EC50: 1.14 µM (active)
INS1
  AC50: 7.97 µM (active)
H4
  EC50: > 120 µM (not active)
[6]
  AC50: 2.33 µM (active)
[7]
  EC50: 1.65 µM (active)
[8]
  Absolute IC50 (CHOP): 10 µM
[9]
  EC50: 7.98 µM (active)
[10]
  EC50: > 120 µM (not active)

## O=C(ON=C1CCN(c2ccc([N+](=O)[O-])cc2)CC1)c1ccccc1
[11]
  IC50: > 20 µM (inactive)
[12]
  EC50: > 53 µM (inactive)
Aminopeptidase N
  IC50: 45.2 µM (active)
[13]
  IC50: 2.74 µM (active)

## CC(=O)Nc1sc(/C(C#N)=C/c2ccc(Cl)c(Cl)c2)nc1-c1ccc(C)cc1
[14]
  IC50: 0.534 µM (active)

## COc1cccc(N(CC(=O)NC2CCCC2)C(=O)Cn2nnc(-c3ccc(C)cc3)n2)c1
[15]
  AC50: 234 µM (active)

## COc1ccc(F)cc1C(=O)C1CCCN(Cc2cccn2-c2ccccn2)C1 (stereo unspecified)
[16]
  EC50: > 195 µM (not active)
[17]
  EC50: 8.93 µM (active)

## O=C(Nc1ccc(Cl)cc1)Nc1ccc(N2CCCC2)c(S(=O)(=O)Nc2ccccc2Cl)c1
[18]
  IC50: > 16 µM (inactive)
INS1
  AC50: 6.99 µM (active)
Paired box protein Pax-8
  AC50: 5.13 µM (active)
[19]
  AC50: 5.2 µM (active)
[20]
  AC50: 7.06 µM (active)
[15]
  AC50: 23.5 µM (active)
[21]
  IC50: 4.47 µM (active)

## CC1=C([N+](=O)[O-])C(c2ccc(O)c(O)c2)NC(=O)N1 (stereo unspecified)
Procathepsin L
  IC50: > 59.6 µM (not active)
Aspartyl aminopeptidase
  IC50: 0.864 µM (active)

## COc1ccc(NC(=O)c2ccc(Cl)cc2C(=O)O)cc1
Hexokinase
  IC50: > 25 µM (inactive)

## C/C(CCC12CC3CC(CC(C3)C1)C2)=N\NC(N)=S
[22]
  IC50: 50.4 µM (inactive)
Beta-galactosidase
  IC50: > 66.6 µM (inactive)

## COc1ccc2c(c1OC)C(=O)O[C@@H]2[C@H]1c2cc3c(cc2CCN1C)OCO3 [HYDRASTINE]
Cytochrome P450 2D6
  AC50: 39.8 µM (inconclusive)
Cytochrome P450 2C9
  AC50: 25.1 µM (inconclusive)

## C[C@H](CCC(=O)O)[C@H]1CC[C@H]2[C@@H]3[C@@H](O)C[C@@H]4C[C@H](O)CC[C@]4(C)[C@H]3CC[C@]12C [URSODIOL]
Aminopeptidase N
  IC50: 2.6 µM (active)
